According to paper PMC7519584 (Clinical cancer research : an official journal of the …, 2015):

Columns and labels:
HCC = settings: sorafenib monotherapy, phase III trial in HCC (SHARP); cited from earlier work
clinical = settings: human, in vivo
[1] = Plasma pharmacokinetics of refametinib, metabolite M17 and sorafenib; settings: human, in vivo, Geometric mean maximum drug concentration (Cmax), multiple dose, day 1 of course 2, at the MTD, non-HCC patients
[2] = human, in vivo
[3] = ref NCT00610194; cited from earlier work

CNC(=O)c1cc(Oc2ccc(NC(=O)Nc3ccc(Cl)c(C(F)(F)F)c3)cc2)ccn1 [sorafenib]
Patients who achieved stable disease (HCC): 71% | Response rate (HCC): 2% | Sorafenib dose at the MTD of the combination (in combination with refametinib 50 mg twice daily, 28-day courses): 400 mg twice daily

COc1cc(F)c(F)c(Nc2ccc(I)cc2F)c1NS(=O)(=O)C1(C[C@H](O)CO)CC1 [refametinib]
half-life (clinical; Plasma half-life (geometric mean)): ~16 h | Tmax (clinical; po): ~3 h | Cmax [1]: 674 ng/mL | Patients with serious AEs considered possibly related to refametinib (human, in vivo): 10 patients | Maximum tolerated dose (MTD) of refametinib (in combination with sorafenib 400 mg twice daily, 28-day courses): 50 mg twice daily | Multiple-dose AUC0–12 higher than single-dose AUC0–12 by an average of [2]: approximately 40% | Accumulation after multiple dosing ([2]; 28 days): less than 2 fold | MTD of refametinib monotherapy [3]: 50 mg twice daily
